Measurements: patent publication US20110071180A1, “SUB-TYPE SELECTIVE AMIDES OF DIAZABICYCLOALKANES” (Targacept, Inc., priority 2008, published 2011)
pKi: −log10 of the molar value. Where two headings read alike, the source gives them in different places.

Key:
[1] = biological target: T1, human α4β2 nAChR subtype (Homo sapiens, UniProt P17787+P43681); assay: Radioligand binding, [3H]nicotine, membranes from SH-EP1/human α4β2 clonal cells; details: [3H]nicotine 5 nM, SH-EP1/human α4β2 cell membranes
T1 construct: expressed in transfected cells; host or cells: SH-EP1 clonal cells expressing human α4β2
Procedure: Preparation of membranes from SH-EP1/human α4β2 clonal cells: Cell pellets from 40 150 mm culture dishes were pooled, and homogenized by Polytron (Kinematica GmbH, Switzerland) in 20 milliliters of ice-cold preparative buffer. The homogenate was centrifuged at 48,000 g for 20 minutes at 4° C. The resulting pellet was re-suspended in 20 mL of ice-cold preparative buffer and stored at −20° C.
(§1) On the day of the assay, the frozen membranes were thawed and spun at 48,000×g for 20 min. The supernatant was decanted and discarded. The pellet was resuspended in Dulbecco's phosphate buffered saline (PBS, Life Technologies) pH 7.4 and homogenized with the Polytron for 6 seconds. Protein concentrations were determined using a Pierce BCA Protein Assay Kit, with bovine serum albumin as the standard (Pierce Chemical Company, Rockford, Ill.).
(§2) Membrane preparations (approximately 50 μg for human and 200-300 μg protein for rat α4β2) were incubated in PBS (50 μL and 100 μL respectively) in the presence of competitor compound (0.01 nM to 100 μM) and 5 nM [^3H]nicotine for 2-3 hours on ice. Incubation was terminated by rapid filtration on a multi-manifold tissue harvester (Brandel, Gaithersburg, Md.) using GF/B filters presoaked in 0.33% polyethyleneimine (w/v) to reduce non-specific binding. Tissue was rinsed 3 times in PBS, pH 7.4. Scintillation fluid was added to filters containing the washed tissue and allowed to equilibrate. Filters were then counted to determine radioactivity bound to the membranes by liquid scintillation counting (2200CA Tri-Carb LSC, Packard Instruments, 50% efficiency or Wallac Trilux 1450 MicroBeta, 40% efficiency, Perkin Elmer).
(§3) Data were expressed as disintegrations per minute (DPMs). Within each assay, each point had 2-3 replicates. The replicates for each point were averaged and plotted against the log of the drug concentration. IC50, which is the concentration of the compound that produces 50% inhibition of binding, was determined by least squares non-linear regression. Ki values were calculated using the Cheng-Prussof equation (1973): […]

[2] = biological target: T2, rat α4β2 nAChR subtype (Rattus norvegicus, UniProt P09483+P12390); assay: Radioligand binding, [3H]nicotine, rat cortex membranes; details: [3H]nicotine 5 nM
T2 construct: The cerebral cortex was removed and placed in 20 volumes (weight:volume) of ice-cold preparative buffer; from tissue; host or cells: rat cerebral cortex membranes (female Sprague-Dawley)
Procedure: Preparation of Membranes from Rat Cortex: Rats (Female, Sprague-Dawley), weighing 150-250 g, were maintained on a 12 h light/dark cycle and were allowed free access to water and food supplied by PMI Nutrition International, Inc. Animals were anesthetized with 70% CO2, and then decapitated. Brains were removed and placed on an ice-cold platform. The cerebral cortex was removed and placed in 20 volumes (weight:volume) of ice-cold preparative buffer (137 mM NaCl, 10.7 mM KCl, 5.8 mM KH2PO4, 8 mM Na2HPO4, 20 mM HEPES (free acid), 5 mM iodoacetamide, 1.6 mM EDTA, pH 7.4); PMSF, dissolved in methanol to a final concentration of 100 μM, was added and the suspension was homogenized by Polytron. The homogenate was centrifuged at 18,000×g for 20 min at 4° C. and the resulting pellet was re-suspended in 20 volumes of ice-cold water. After 60 min incubation on ice, a new pellet was collected by centrifugation at 18,000×g for 20 min at 4° C. The final pellet was re-suspended in 10 volumes of buffer and stored at −20° C.
as §1, §2, §3

[3] = biological target: T3, α7 nAChR subtype (Rattus norvegicus, UniProt Q05941); assay: Radioligand binding, [3H]MLA, rat hippocampus membranes; details: for inhibition at 5 µM: read-out: α7 high through-put screening (HTS) result
T3 construct: The hippocampus was removed and placed in 10 volumes (weight:volume) of ice-cold preparative buffer; from tissue; host or cells: rat hippocampus membranes (female Sprague-Dawley)
Procedure: Rats (female, Sprague-Dawley), weighing 150-250 g, were maintained on a 12 h light/dark cycle and were allowed free access to water and food supplied by PMI Nutrition International, Inc. Animals were anesthetized with 70% CO2, then decapitated. Brains were removed and placed on an ice-cold platform. The hippocampus was removed and placed in 10 volumes (weight:volume) of ice-cold preparative buffer (137 mM NaCl, 10.7 mM KCl, 5.8 mM KH2PO4, 8 mM Na2HPO4, 20 mM HEPES (free acid), 5 mM iodoacetamide, 1.6 mM EDTA, pH 7.4); PMSF, dissolved in methanol to a final concentration of 100 μM, was added and the tissue suspension was homogenized by Polytron. The homogenate was centrifuged at 18,000×g for 20 min at 4° C. and the resulting pellet was re-suspended in 10 volumes of ice-cold water. After 60 min incubation on ice, a new pellet was collected by centrifugation at 18,000×g for 20 min at 4° C. The final pellet was re-suspended in 10 volumes of buffer and stored at −20° C. On the day of the assay, tissue was thawed, centrifuged at 18,000×g for 20 min, and then re-suspended in ice-cold PBS (Dulbecco's Phosphate Buffered Saline, 138 mM NaCl, 2.67 mM KCl, 1.47 mM KH2PO4, 8.1 mM Na2HPO4, 0.9 mM CaCl2, 0.5 mM MgCl2, Invitrogen/Gibco, pH 7.4) to a final concentration of approximately 2 mg protein/mL. Protein was determined by the method of Lowry et al., J. Biol. Chem. 193: 265 (1951), using bovine serum albumin as the standard.
The binding of [^3H]MLA was measured using a modification of the methods of Davies et al., Neuropharmacol. 38: 679 (1999). [^3H]MLA (Specific Activity=25-35 Ci/mmol) was obtained from Tocris. The binding of [^3H]MLA was determined using a 2 h incubation at 21° C. Incubations were conducted in 48-well micro-titre plates and contained about 200 μg of protein per well in a final incubation volume of 300 μL. The incubation buffer was PBS and the final concentration of [^3H]MLA was 5 nM. The binding reaction was terminated by filtration of the protein containing bound ligand onto glass fiber filters (GF/B, Brandel) using a Brandel Tissue Harvester at room temperature. Filters were soaked in de-ionized water containing 0.33% polyethyleneimine to reduce non-specific binding. Each filter was washed with PBS (3×1 mL) at room temperature. Non-specific binding was determined by inclusion of 50 μM non-radioactive MLA in selected wells.
The inhibition of [^3H]MLA binding by test compounds was determined by including seven different concentrations of the test compound in selected wells. Each concentration was replicated in triplicate. IC50 values were estimated as the concentration of compound that inhibited 50 percent of specific [^3H]MLA binding. Inhibition constants (Ki values), reported in nM, were calculated from the IC50 values using the method of Cheng et al., Biochem. Pharmacol. 22: 3099-3108 (1973).

[4] = [3H]MLA 5 nM, rat hippocampus membranes, read-out: α7 Ki

T2 sequence (P09483 31-630): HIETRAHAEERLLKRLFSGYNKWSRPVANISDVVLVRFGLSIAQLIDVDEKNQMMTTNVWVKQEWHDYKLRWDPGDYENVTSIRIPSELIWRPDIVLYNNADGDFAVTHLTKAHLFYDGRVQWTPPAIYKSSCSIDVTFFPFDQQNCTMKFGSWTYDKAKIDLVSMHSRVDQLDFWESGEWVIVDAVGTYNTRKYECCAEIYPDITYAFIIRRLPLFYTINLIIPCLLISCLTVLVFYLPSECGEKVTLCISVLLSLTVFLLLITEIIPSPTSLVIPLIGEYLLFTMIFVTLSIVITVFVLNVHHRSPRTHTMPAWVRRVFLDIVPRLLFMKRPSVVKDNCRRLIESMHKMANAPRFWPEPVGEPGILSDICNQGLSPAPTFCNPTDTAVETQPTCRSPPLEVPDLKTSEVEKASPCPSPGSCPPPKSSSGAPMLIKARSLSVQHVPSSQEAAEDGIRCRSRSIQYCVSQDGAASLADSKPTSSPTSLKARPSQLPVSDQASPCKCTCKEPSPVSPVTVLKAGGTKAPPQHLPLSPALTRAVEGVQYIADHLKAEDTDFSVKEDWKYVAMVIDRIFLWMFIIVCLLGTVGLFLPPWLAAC
T2 sequence (P12390 25-500): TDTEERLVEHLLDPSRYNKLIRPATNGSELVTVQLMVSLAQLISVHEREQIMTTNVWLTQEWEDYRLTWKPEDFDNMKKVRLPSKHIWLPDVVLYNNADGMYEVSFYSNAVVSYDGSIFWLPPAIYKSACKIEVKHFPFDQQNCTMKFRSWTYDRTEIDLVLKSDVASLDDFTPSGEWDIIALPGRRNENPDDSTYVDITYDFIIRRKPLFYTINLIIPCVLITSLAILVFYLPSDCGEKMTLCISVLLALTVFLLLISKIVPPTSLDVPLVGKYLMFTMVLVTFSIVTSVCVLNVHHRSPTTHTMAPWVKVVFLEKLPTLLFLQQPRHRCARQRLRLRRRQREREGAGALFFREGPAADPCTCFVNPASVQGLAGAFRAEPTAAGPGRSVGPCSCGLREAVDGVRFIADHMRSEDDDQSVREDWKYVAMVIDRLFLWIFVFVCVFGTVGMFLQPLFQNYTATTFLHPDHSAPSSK
T1 sequence (P43681 29-627 limits assumed): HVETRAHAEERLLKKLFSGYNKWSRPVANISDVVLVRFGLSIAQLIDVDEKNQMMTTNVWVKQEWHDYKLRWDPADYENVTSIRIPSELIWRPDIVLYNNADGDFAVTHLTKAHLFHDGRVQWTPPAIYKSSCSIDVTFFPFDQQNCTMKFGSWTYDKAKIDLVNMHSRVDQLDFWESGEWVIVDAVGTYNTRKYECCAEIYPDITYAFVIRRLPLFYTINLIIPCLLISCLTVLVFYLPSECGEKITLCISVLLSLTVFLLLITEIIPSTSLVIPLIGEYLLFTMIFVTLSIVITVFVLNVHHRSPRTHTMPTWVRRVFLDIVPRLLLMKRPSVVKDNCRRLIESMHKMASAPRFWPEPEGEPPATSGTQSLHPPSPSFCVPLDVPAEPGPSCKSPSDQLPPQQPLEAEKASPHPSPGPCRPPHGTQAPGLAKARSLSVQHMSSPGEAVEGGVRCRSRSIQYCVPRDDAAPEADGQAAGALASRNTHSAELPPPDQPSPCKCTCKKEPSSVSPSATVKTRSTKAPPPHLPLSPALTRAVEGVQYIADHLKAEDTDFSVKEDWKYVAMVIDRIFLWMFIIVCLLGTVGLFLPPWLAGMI
T1 sequence (P17787 26-502): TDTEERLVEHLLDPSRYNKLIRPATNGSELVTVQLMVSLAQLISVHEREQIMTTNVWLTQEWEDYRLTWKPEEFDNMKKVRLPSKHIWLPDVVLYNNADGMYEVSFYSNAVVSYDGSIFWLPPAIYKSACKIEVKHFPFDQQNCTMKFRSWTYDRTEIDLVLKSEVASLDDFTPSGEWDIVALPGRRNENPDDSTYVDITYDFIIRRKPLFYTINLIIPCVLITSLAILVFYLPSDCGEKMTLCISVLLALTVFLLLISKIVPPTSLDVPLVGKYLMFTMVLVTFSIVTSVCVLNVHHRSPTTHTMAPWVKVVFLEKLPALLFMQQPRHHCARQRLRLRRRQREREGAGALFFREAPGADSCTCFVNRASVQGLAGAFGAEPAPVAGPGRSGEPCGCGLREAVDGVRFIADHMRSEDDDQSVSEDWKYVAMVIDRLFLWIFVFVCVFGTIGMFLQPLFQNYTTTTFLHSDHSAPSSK
T3 sequence (Q05941 23-502): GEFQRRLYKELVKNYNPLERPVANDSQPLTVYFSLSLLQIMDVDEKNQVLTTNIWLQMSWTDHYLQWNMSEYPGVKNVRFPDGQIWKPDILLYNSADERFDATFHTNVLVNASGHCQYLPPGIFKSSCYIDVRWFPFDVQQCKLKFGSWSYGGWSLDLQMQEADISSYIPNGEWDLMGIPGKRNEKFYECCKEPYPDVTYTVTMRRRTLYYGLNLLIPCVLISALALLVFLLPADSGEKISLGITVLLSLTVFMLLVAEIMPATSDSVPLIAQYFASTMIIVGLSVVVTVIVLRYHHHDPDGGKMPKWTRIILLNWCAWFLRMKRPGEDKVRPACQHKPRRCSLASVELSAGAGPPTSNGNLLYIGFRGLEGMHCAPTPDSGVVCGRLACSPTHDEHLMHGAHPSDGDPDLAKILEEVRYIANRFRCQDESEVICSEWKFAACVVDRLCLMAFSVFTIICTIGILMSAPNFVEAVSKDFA

O=C(C1CC12CCC2)N1CC2CNCC2C1 (stereo not drawn) [Example 10-26]
pKi [1]: 8.40 | pKi [2]: 8.20 | inhibition at 5 µM [3]: < 50%

O=C(N1CC2CNCC(C2)C1)C1(O)CC1 [Example 10-72]
pKi [1]: 6.65 | pKi [2]: 7.12 | inhibition at 5 µM [3]: < 50%

CC1(C(=O)N2CC3CNCC3C2)CC1 (stereo not drawn) [Example 10-20]
pKi [1]: 7.27 | pKi [2]: 6.86 | inhibition at 5 µM [3]: < 50%

CC1(C)CC1C(=O)N1CC2CNCC2C1 (stereo not drawn) [Example 10-19]
pKi [1]: 7.77 | pKi [2]: 8.11 | inhibition at 5 µM [3]: < 50%

CS(=O)(=O)CC(=O)N1CC2CNCC(C2)C1 [Example 10-85]
pKi [1]: 6.88 | pKi [2]: 6.72 | inhibition at 5 µM [3]: < 50%

O=C(CC1CC1)N1CC2CNCC2C1 (stereo not drawn) [Example 10-34]
pKi [1]: 6.98 | pKi [2]: 7.20 | inhibition at 5 µM [3]: < 50%

O=C(C1=CCCC1)N1CC2CNCC2C1 (stereo not drawn) [Example 10-8]
pKi [1]: 6.53 | pKi [2]: 6.94 | inhibition at 5 µM [3]: < 50%

O=C([C@H]1C[C@@H]1F)N1CC2CNCC2C1 (stereo partly drawn) [Example 10-36]
pKi [1]: 7.76 | pKi [2]: 7.46 | pKi ([3]; α7 Ki): 4.60

CC(F)(F)C(=O)N1CC2CNCC(C2)C1 [Example 10-90]
pKi [1]: 8.04 | pKi [2]: 7.84 | inhibition at 5 µM [3]: < 50%

CC1(C)C(C(=O)N2CC3CNCC(C3)C2)C1(C)C [Example 10-73]
pKi [1]: 7.55 | pKi [2]: 6.92 | inhibition at 5 µM [3]: < 50%

O=C(C(F)F)N1CC2CNCC(C2)C1 [Example 10-59]
pKi [1]: 7.61 | pKi [2]: 8.77 | pKi [3, 4]: 6.53

O=C(CO)N1CC2CNCC2C1 (stereo not drawn) [Example 10-27]
pKi [1]: 6.69 | pKi [2]: 6.58 | inhibition at 5 µM [3]: < 50%

O=C(C1CC2C=CC1C2)N1CC2CNCC2C1 (stereo not drawn) [Example 10-43]
pKi [1]: 7.80 | pKi [2]: 7.47 | inhibition at 5 µM [3]: < 50%

O=C(CF)N1CC2CNCC2C1 (stereo not drawn) [Example 10-11]
pKi [1]: 7.35 | pKi [2]: 7.21 | inhibition at 5 µM [3]: < 50%

O=C([C@H]1C[C@@H]1F)N1CC2CNCC(C2)C1 [Example 10-79]
pKi [1]: 8.70 | pKi [2]: 8.39 | pKi ([3]; α7 Ki): 6.02

CC(C)(F)C(=O)N1CC2CNCC(C2)C1 [Example 10-91]
pKi [1]: 6.86 | pKi [2]: 6.47 | inhibition at 5 µM [3]: < 50%

CC(=O)N1CC2CNCC(C2)C1 [Example 10-55]
pKi [1]: 7.69 | pKi [2]: 7.73 | pKi [3, 4]: 5.48

CS(=O)(=O)CC(=O)N1CC2CNCC2C1 (stereo not drawn) [Example 10-35]
pKi [1]: 6.46 | pKi [2]: 6.62 | inhibition at 5 µM [3]: < 50%

O=C([C@@H]1C[C@H]1F)N1CC2CNCC2C1 (stereo partly drawn) [Example 10-37]
pKi [1]: 8.31 | pKi [2]: 7.91 | inhibition at 5 µM [3]: < 50%

O=C(C1CCC1)N1CC2CNCC2C1 (stereo not drawn) [Example 10-25]
pKi [1]: 8.24 | pKi [2]: 7.90 | inhibition at 5 µM [3]: < 50%

O=C(C1C2CCCCC21)N1CC2CNCC2C1 (stereo not drawn) [Example 10-45]
pKi [1]: 8.07 | pKi [2]: 7.59 | pKi [3, 4]: 6.29

CC(C)(C)C(=O)N1CC2CNCC2C1 (stereo not drawn) [Example 10-32]
pKi [1]: 8.09 | pKi [2]: 7.80 | inhibition at 5 µM [3]: < 50%

O=C(C1=CCCC1)N1CC2CNCC(C2)C1 [Example 10-58]
pKi [1]: 6.33 | pKi [2]: 6.75 | inhibition at 5 µM [3]: < 50%

O=C(C1CC2CCC1C2)N1CC2CNCC2C1 (stereo not drawn) [Example 10-42]
pKi [1]: 7.19 | pKi [2]: 6.86 | inhibition at 5 µM [3]: < 50%

COCC(=O)N1CC2CNCC(C2)C1 [Example 10-61]
pKi [1]: 7.41 | pKi [2]: 7.30 | pKi [3, 4]: 5.83

N#CC1(C(=O)N2CC3CNCC(C3)C2)CC1 [Example 10-74]
pKi [1]: 5.87 | pKi [2]: 5.31 | inhibition at 5 µM [3]: < 50%

O=C([C@H]1C[C@H]1F)N1CC2CNCC(C2)C1 [Example 10-78]
pKi [1]: 8.77 | pKi [2]: 8.54 | pKi ([3]; α7 Ki): 6.40

O=C(C1C[C@H]2C=C[C@@H]1CC2)N1CC2CNCC2C1 (stereo partly drawn) [Example 10-46]
pKi [1]: 7.35 | pKi [2]: 6.63 | inhibition at 5 µM [3]: < 50%

O=C(C1CCC1)N1CC2CNCC(C2)C1 [Example 10-75]
pKi [1]: 8.85 | pKi [2]: 8.80 | pKi [3, 4]: 7.15

CC1C(C)C1C(=O)N1CC2CNCC2C1 (stereo not drawn) [Example 10-52]
pKi [1]: 7.91 | pKi [2]: 6.88 | inhibition at 5 µM [3]: < 50%

O=C([C@@H]1C[C@H]1F)N1CC2CNCC(C2)C1 [Example 10-88]
pKi [1]: 8.85 | pKi [2]: 8.74 | pKi ([3]; α7 Ki): 6.62

O=C(CS(=O)(=O)c1ccccc1)N1CC2CNCC(C2)C1 [Example 10-84]
pKi [1]: 6.22 | pKi [2]: 6.02 | inhibition at 5 µM [3]: < 50%

CC1(C)C(C(=O)N2CC3CNCC3C2)C1(C)C (stereo not drawn) [Example 10-23]
pKi [1]: 7.79 | pKi [2]: 7.31 | inhibition at 5 µM [3]: < 50%

O=C(C1CC12CCC2)N1CC2CNCC(C2)C1 (stereo not drawn) [Example 10-76]
pKi [1]: 8.96 | pKi [2]: 8.80 | pKi [3, 4]: 6.17

O=C(C1CC=CC1)N1CC2CNCC2C1 (stereo not drawn) [Example 10-7]
pKi [1]: 7.14 | pKi [2]: 7.55 | inhibition at 5 µM [3]: < 50%

O=C(C1CCC[C@H]1O)N1CC2CNCC(C2)C1 (stereo partly drawn) [Example 10-96]
pKi [1]: 6.14 | pKi [2]: 6.11 | inhibition at 5 µM [3]: < 50%

O=C([C@@H]1C[C@@H]1F)N1CC2CNCC(C2)C1 [Example 10-89]
pKi [1]: 9.00 | pKi [2]: 9.10 | pKi ([3]; α7 Ki): 7.13

O=C(C1CC=CCC1c1cccnc1)N1CC2CNCC2C1 (stereo not drawn) [Example 10-48]
pKi [1]: 6.46 | pKi [2]: 6.00 | inhibition at 5 µM [3]: < 50%
